Results: US20250339443A1, “METHOD FOR TREATING OR PREVENTING CALCIUM RELEASE-ACTIVATED CALCIUM CHANNEL OR DISCOIDIN DOMAIN RECEPTOR 2 RELATED DISORDERS OR CONDITIONS” (LumiSTAR Biotechnology, Inc., priority 2023, published 2025)

Legend:
[1] = tested on: human cardiac fibroblast (HCF); assay: TGF-β1-induced fibronectin deposition and α-SMA expression in HCF (immunofluorescence); format: cell-based; settings: for TGF-β1-increased cell spreading area: 10 μM co-treatment; for expression of fibronectin and α-SMA induced by TGF-β1: 10 μM, immunofluorescence
Experimental: Cells were co-treated with various compounds (10 μM) and TGF-β1 for 24 hours. Following this, cell lysates were harvested, and the protein expression was assessed by Western blot analysis. FIG. 3D depicts the examination of TGF-β1-induced fibronectin deposition and α-SMA expression in HCF treated with 10 μM of DMSO, BTP2, WRG-28, or Av through immunofluorescence staining. The images were captured using a confocal microscope, the Olympus FV-1000. FIG. 3E, FIG. 3F, and FIG. 3G illustrate the assessment of CRAC channel activity in HCF, MRC5, and rat HSC-T6. These cells were pretreated with 10 μM of BTP2, WRG-28, or Av for 45 min. The evaluation included measuring the second peak of each calcium wave and the rate of entry. Each bar within the figure represents the mean value derived from 77 to 91 cells for HCF, 31 to 49 cells for MRC5, and 43 to 94 cells for HSC-T6. In all the graphs, *, **, and *** denote p-values of <0.05, 0.01, and 0.001, respectively.
In TGF-β1-induced cell differentiation, cells were seeded on a type I collagen-coated tissue culture dish and then treated with different compounds for 4 hours. Cells were then treated with 10 ng/ml TGF-β1 for another 24 hours before protein analysis or immunocytochemistry study.
Cells cultured on chamber slides were fixed with 4% paraformaldehyde for 10 minutes followed by a permeabilization step by incubating cells in 0.5% Triton X-100 in PBS for 5 minutes. Cells were then incubated in SuperBlock blocking buffer (Thermo Scientific) for 1 h at room temperature. The protein expression was detected by incubating cells with specific primary antibodies followed by incubating cells with secondary antibodies against mouse or rabbit IgG conjugated with Alexa-488 or -594 nm (Invitrogen), respectively. Hoechst 33258 (10 μg/ml) is used for nuclei staining. All images were visualized and taken by confocal microscopy (Olympus, FV-1000).
To assess the overall effects of WRG-28 and Av on TGF-1-induced fibroblast activation, human cardiac fibroblasts (HCF), human pulmonary fibroblasts (MRC5), and rat hepatic stellate cells (HSC-T6) were employed. The upregulation of α-SMA induced by TGF-β1 treatment was observed, but this effect was suppressed by the co-treatment with various compounds, including BTP2, WRG-28, and Av, across all tested cell (FIG. 3A, FIG. 3B, and FIG. 3C). The expression of fibronectin and α-SMA induced by TGF-β1 in HCF was examined, and once again, the treatment with BTP2, WRG-28, or Av suppressed this effect (FIG. 3D).

[2] = target: T1, Stim1 or Orai1 puncta (Homo sapiens, UniProt Q96D31); assay: Orai1 and Stim1 puncta in HEK293T cells overexpressing CFP-Orai1/Stim1-mCherry after thapsigargin; format: cell-based; settings: 10 μM pretreatment 30 min, 1 μM thapsigargin 15 min
T1 construct: expressed in transfected cells; host or cells: HEK293T
Experimental: FIG. 1A, FIG. 1B, FIG. 1C, FIG. 1D, FIG. 1E, FIG. 1F, FIG. 1G, FIG. 1H, FIG. 1I, FIG. 1J, FIG. 1K, FIG. 1L, FIG. 1M, and FIG. 1N show WRG-28 and atovaquone (Av) suppress the activation of DDR2 and calcium release-activated calcium (CRAC) channel. FIG. 1A indicates HEK293T cells were transiently overexpressed with DDR2 and then pretreated with different compounds (10 μM), including WRG-28, Av, donepezil hydrochloride (Dh), terazosin hydrochloride (Th), verapamil and flecainide for 30 minutes. Verapamil and flecainide were used as negative control here. After that, cells were treated with 50 μg/mL type I collagen for 12 hours. Cell lysates were harvested and subjected to Western blot analysis with antibodies against phosphotyrosine antibody (clone 4G10), DDR2, and β-actin. […] CRAC channel activity was evaluated by applying 1 μM thapsigargin (Thap.) in a calcium-free solution to deplete the endoplasmic reticulum calcium store, followed by the reintroduction of 2 mM Ca^2+ in an external solution. The concentration of cytosolic calcium ions increases as calcium flows through the CRAC channel, leading to the second peak in cytosolic calcium waves. […] Further analyses are presented in FIG. 1I and FIG. 1J, where the second peak of each wave and rate of entry were analyzed. […] The Orai1 and Stim1 puncta in HEK293T cells overexpressed with CFP-Orai1/Stim1-mCherry were assessed. […]

T1 sequence (Q96D31 whole entry): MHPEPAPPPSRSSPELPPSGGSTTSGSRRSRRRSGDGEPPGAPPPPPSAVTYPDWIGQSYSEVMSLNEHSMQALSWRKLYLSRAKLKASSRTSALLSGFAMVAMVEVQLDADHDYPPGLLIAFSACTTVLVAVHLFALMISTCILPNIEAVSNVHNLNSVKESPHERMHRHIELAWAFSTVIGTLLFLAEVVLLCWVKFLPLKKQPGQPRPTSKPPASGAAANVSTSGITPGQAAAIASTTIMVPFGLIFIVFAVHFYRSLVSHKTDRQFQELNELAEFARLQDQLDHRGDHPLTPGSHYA

Row | Structure (SMILES) | TGF-β1-increased cell spreading area [1] | expression of fibronectin and α-SMA induced by TGF-β1 [1] | formation of Stim1 or Orai1 puncta induced by store depletion [2]
1 | Cc1nnsc1C(=O)Nc1ccc(-n2nc(C(F)(F)F)cc2C(F)(F)F)cc1 [BTP2] | mitigated | suppressed | unaffected
2 | CCNS(=O)(=O)c1ccc(COc2ccc3nc4ccc(=O)cc-4oc3c2)cc1 [WRG-28] | mitigated | suppressed | unaffected
